Data from patent EP1878738A1, “ALLERGY-SUPPRESSIVE COMPOSITION, ALLERGY-SUPPRESSIVE FOOD AND ALLERGY-SUPPRESSIVE AGENT” (priority 2005, dated 2006).
Read-outs that look alike come from different tables or passages of the source.

Tests used:
anti-OVA IgE = assay: Example 2: oral immune tolerance, serum anti-OVA IgE by ELISA in human-flora associated mice; format: in vivo; conditions: 1-kestose-administered group, 204 without 1-kestose, germfree mice 496
Description: (§1) In Example 2, to examine the effect of 1-kestose on the production of IgG1 and IgE, 1-kestose was administered to germfree […] to measure IgG1 and IgE amounts in the serum before and after giving 1-kestose.
(§2) In this Example 2, the mice used in the experiment were male […] with 4 weeks of age born and grown in a germfree condition (BALB/c), with 10 to 15 rats as a group. These mice were orally provided with 0.5ml of a liquid obtained by diluting feces of human infants 100 times and observed in a germfree condition for two weeks. Afterward, 5mg of ovalbumin (OVA) was orally administered to the mice for 4 days. To examine the existence of immune tolerance, a liquid obtained by adding 0.1 mg of aluminum hydroxide gel to 1 µg of OVA was injected into the abdominal cavity, 1, 3, 5 and 7 weeks after orally administering OVA. These human-flora associated mice were separated into 1-kestose-administered group and non-administered control group and anti-OVA IgG1 and anti-OVA IgE in the serum were measured by ELISA method, 9 weeks after administering 1-kestose.

anti-OVA IgG1 = assay: Example 2: oral immune tolerance, serum anti-OVA IgG1 by ELISA in human-flora associated mice; format: in vivo; conditions: 1-kestose-administered group, 41 without 1-kestose, germfree mice 1583
Description: as §1, §2

Bifidobacterium [1] = assay: Example 7: clinical test, bifidobacterial occupancy in feces; format: in vivo, human; conditions: before 30.1 %
Text: (§3) The test subjects were 13 infants with atopic dermatitis and mild and severe eruption (age: 0 to 3 years old) in which food allergic symptoms were accompanied. The test was approved by parents of the subjects.
(§4) In the clinical test, the subjects were kept under observation for 2 weeks and they took 1-kestose with a purity of 98% mixed with water or juice once a day for 12 weeks. The subjects at age 1 or under were provided with 1g of 1-kestose a day and those at age 2 to 3 took 2g of 1-kestose a day. The test subjects used no external preparation of steroid for one month or more before taking 1-kestose. During the test, the subjects were treated mainly with a humectant and took food allergen removing food.
(§5) The subjects were diagnosed at the start of, 6 and 12 weeks after taking 1-kestose, and 4 to 8 weeks after the intake completion to assess the clinical test results (examination of dermis severity and stool samples). The inspection 4 to 8 weeks after the intake completion was aimed at examining drug efficacy sustaining effect. In the stool sample inspection, feces were collected form the subjects to calculate bifidobacterial occupancy in the feces. The eruption severity was examined using Severity Determination Method by Region of Severity Discussion Committee of Japanese Dermatological Association, in which by separating the entire body into 5 regions: head, anterior and posterior parts of the trunk, upper and lower extremities, the sum of comprehensive assessments is calculated in each region (on 0 to 4 scales).

nonspecific IgE [2] = assay: Example 5: nonspecific IgE after 1-kestose and after fructooligosaccharide intake; format: in vivo, human
Description: In this Example 5, the subjects were 4 adult females (from 27 to 45 years old) with daily allergic symptoms. They took 1-kestose and fructooligosaccharide and nonspecific IgE of each subject was measured. In this experiment, nonspecific IgE before taking the substances was measured and then the subjects took 3g of 1-kestose after eating once a day for 4 weeks. The blood was collected 5 weeks later to measure nonspecific IgE and afterward they took no substances for 2 weeks. Then, the subjects took 3g of fructooligosaccharide after eating once a day for 4 weeks and the blood was collected. The 1-kestose used in this Example 5 has a purity of 95% or more, and the commercially-available fructooligosaccharide is a nystose-dominant oligosaccharide composed of nystose (51 %) and 1-kestose (36%). In the experiment, the subjects took less health foods like prebiotics and probiotics containing other oligosaccharides and Lactobacillus.

Bifidobacterium [3] = assay: Example 4: improvement of enterobacterial flora in germfree mice, proportion of Bifidobacterium; format: in vivo; conditions: orally administered for 5 days
Text: In this Example 4, the effect of improving the enterobacterial flora of each composition composed of fructooligosaccharide was compared, using germfree mice. The fructooligosaccharide is composed of kestose (trisaccharide), nystose (tetrasaccharide) and F-nystose (pentasaccharide). The kestose used in this Example 4 is composed of 1-kestose (99.0%), nystose (0.5%) and sucrose (0.5%). The nystose is composed of nystose (99.0%), 1-kestose (0.9%) and sucrose (0.1 %). The F-nystose is composed of F-nystose (82.0%), other pentasaccharides (13.0%) and other components (5.0%). Additionally, control groups of mice dosed with sterile water and dosed with usual fructooligosaccharide (1-kestose: 35.8 weight %, nystose: 50.9 weight %, F-nystose: 8.5 weight %) were prepared and their data were obtained for comparison. […] Each oligosaccharide was orally administered to germfree mice for 5 days to determine the proportion of Bifidobacterium proliferated to total bacterial count.

[4] = in vivo
Text: The subjects were 2 volunteer patients with allergic symptoms (adult male and female each). They took 3g of 1-kestose for one month and blood components like nonspecific IgE in the serum were examined.

[5] = format: in vivo, human; conditions: many subjects; 1g or 2g a day for 12 weeks
Text: as §4, with “The test subjects were 13 infants with atopic dermatitis and mild and severe eruption (age: 0 to 3 years old) in which food allergic symptoms were accompanied. The test was approved by parents of the subjects. In” for “In”

nonspecific IgE [6] = assay: Example 3: nonspecific IgE in human serum before and after taking 1-kestose; format: in vivo; conditions: adult with allergic symptoms, 3g for one month, standard value 366
Text: In this Example 3, to examine the effect of 1-kestose on IgE amount in the human serum, the subjects were given 1-kestose to measure nonspecific IgE amount in the serum before and after taking 1-kestose.

Bifidobacterium [7] = assay: Example 1: intestinal bacteria in feces, anaerobic plate culture (Bifidobacterium); format: in vivo, human; conditions: after 3g for one month
Text: (§6) The composition, containing 1-kestose used in this Example 1, is of a 1-kestose purity of 98%, composed of 1-kestose (98 weight %), nystose (1.0 weight %) and sucrose (1.0 weight %). An allergy-suppressive composition, having 1-kestose as an active ingredient, was given to 4 adult males having allergic symptoms, with each dose of 3g for one month. The feces before and after the composition was taken were collected to measure IgA and intestinal bacteria in the feces.
Meanwhile, to measure intestinal bacteria, a sample liquid for measurement was dripped on a flat-plate agar medium by 0.05ml and applied thereon. After anaerobic culture of the sample at 35°C for 3 to 5 days, the bacteria were identified and bacterial count was found.

Bifidobacterium [8] = assay: Example 6: effective amount of 1-kestose, Bifidobacterium count in feces; format: in vivo, human; conditions: for minimal effective dose: Bifidobacterium, po, read-out: effective amount of 1-kestose per 1kg body weight
Text: (§7) According to the results of each above-mentioned Example, it was confirmed that an adult can have the effect of 1-kestose as prebiotics with a daily dose of 3g. […] The subjects were 4 health adult males whose age ranges from 38 to 56. The subject A is 67kg, subject B is 56kg, subject C is 59kg and subject D is 63kg in weight.
In the experiment, feces were first collected from each subject before taking 1-kestose, and counts of Bifidobacterium, Lactobacillus, Clostridium and total bacteria were measured. Then, they took 1g of 1-kestose once a day for 2 weeks. 15 days later, feces were collected from each subject to measure intestinal bacteria. Afterward, they took no 1-kestose for one week. From the 22nd day, they took 3g of 1-kestose once a day for two weeks, and feces were collected from each subject on the 36th day to measure intestinal bacteria. Figure 13 and Figure 14 show the results.

[9] = Volunteer experiment on bowel movement, daily dose 2g; format: in vivo, human; conditions: daily dose of 2g; volunteer subjects
Text: as §7

[10] = system: infants with atopic dermatitis; assay: Example 7: clinical test in infants with atopic dermatitis, eruption severity; format: in vivo, human
Text: as §3, §4, §5

[11] = Example 6: 1-kestose intake with no side effect (diarrhea, organs, blood); set-up: species or system human; conditions: in vivo
Text: Meanwhile, the 1-kestose intake with no side effect was examined.

IgA = assay: Example 1: IgA in feces by ELISA before and after taking 1-kestose; format: in vivo, human
Text: as §6
To measure IgA, the collected feces were diluted 20 times with phosphate buffered saline (PBS) and supernatant was collected by a centrifugal separator. Then, the liquid was diluted 10 times with water to make a sample for measurement. Also, an anti-human IgA mouse monoclonal antibody (product of Nacalai Tesque Inc.), and a horseradish peroxidase (HRP)-labeled antibody by labeling the antihuman IgA mouse monoclonal antibody with HRP were prepared. Afterward, IgA was measured using ELISA method.

Compound: OC[C@H]1O[C@@](CO)(OC[C@@]2(O[C@H]3O[C@H](CO)[C@@H](O)[C@H](O)[C@H]3O)O[C@H](CO)[C@@H](O)[C@@H]2O)[C@@H](O)[C@@H]1O [1-kestose]
- anti-OVA IgE in the serum (anti-OVA IgE): 156 unit/ml
- anti-OVA IgG1 in the serum (anti-OVA IgG1): 31 unit/ml
- mean bifidobacterial occupancy in feces (Bifidobacterium [1]; 4 to 8 weeks after completion of 12 weeks intake): 32.7%
- mean bifidobacterial occupancy in feces (Bifidobacterium [1]; 9 subjects, 6 weeks after taking): 42.3%
- mean bifidobacterial occupancy in feces (Bifidobacterium [1]; 9 subjects, 12 weeks after taking, p 0.0308 vs start): 56.0%
- mean nonspecific IgE (nonspecific IgE [2]; mean of 4 adult females, 3g once a day for 4 weeks, before 403.8): 298.8 IU/ml
- decrease in mean nonspecific IgE (nonspecific IgE [2]; mean of 4 subjects, vs before taking): approximately 26%
- nonspecific IgE (nonspecific IgE [2]; subject A, 3g once a day for 4 weeks, before 541): 298 IU/ml
- decrease in nonspecific IgE (nonspecific IgE [2]; subject A, vs before taking): approximately 45%
- nonspecific IgE (nonspecific IgE [2]; subject B, 3g once a day for 4 weeks, before 422): 282 IU/ml
- decrease in nonspecific IgE (nonspecific IgE [2]; subject B, vs before taking): ≥ 32%
- nonspecific IgE (nonspecific IgE [2]; subject C as printed, 3g once a day for 4 weeks, before 323): 275 IU/ml
- decrease in nonspecific IgE (nonspecific IgE [2]; subject C as printed, vs before taking): approximately 25%
- increase in nonspecific IgE (nonspecific IgE [2]; subject C, vs before taking): about 3%
- proportion of Bifidobacterium proliferated to total bacterial count (Bifidobacterium [3]): 12.59%
- C-reactive protein (CRP) value [4]: negative
- effect on hepatic functions, other organs and blood components [4]: no effect on hepatic functions, etc., other organs and blood components
- bowel movement [5]: improved bowel movement
- nonspecific IgE in the serum (nonspecific IgE [6]; before 381): 313 IU/ml
- nonspecific IgE in the serum (nonspecific IgE [6]; before 505): 354 IU/ml
- mean bifidobacterial occupancy relative to the total bacterial count (Bifidobacterium [7]; mean, before 19.97%): 43.05%
- bifidobacterial occupancy relative to the total bacterial count (Bifidobacterium [7]; subject A, before 11.67%): 52.38%
- bifidobacterial occupancy relative to the total bacterial count (Bifidobacterium [7]; subject B, before 38.57%): 57.14%
- minimal effective dose (Bifidobacterium [8]; mean value): 16 mg/kg
- minimal effective dose (Bifidobacterium [8]; subject A (67kg)): 15 mg/kg
- minimal effective dose (Bifidobacterium [8]; subject B (56kg)): 18 mg/kg
- minimal effective dose (Bifidobacterium [8]; subject C (59kg)): 17 mg/kg
- minimal effective dose (Bifidobacterium [8]; subject D (63kg)): 16 mg/kg
- effective 1-kestose amount (Bifidobacterium [8]; adult with a weight of at least 60kg): 1 g per day
- effect on bowel movement [9]: improving bowel movement
- eruption (dermis severity, Japanese Dermatological Association method by region) ([10]; 13 infants 0 to 3 years, 1g or 2g a day for 12 weeks, p 0.0022 start vs 12 weeks, p 0.0025 start vs 4 to 8 weeks after completion): significant improvement in eruption
- number of subjects with no deterioration or recurrence of eruption ([10]; of 11 subjects, 4 to 8 weeks after taking 1-kestose for 12 weeks): Seven
- number of subjects who completely removed eruption ([10]; of 13 subjects, 4 to 8 weeks after taking 1-kestose for 12 weeks): 6
- 1-kestose intake with no side effect ([11]; human, po): ≤ 400 mg/kg/day
- diarrhea [11]: no diarrhea
- diarrhea symptoms [11]: no diarrhea symptoms
- effect on organs and blood component [11]: no effect on organs and blood component
- increase of mean IgA concentration in feces (IgA; after vs before taking 3g for one month): ≥ 1.7 times
- mean IgA concentration in feces (IgA; mean of 4 adult males with allergic symptoms, 3g for one month, 0.61 before taking): 1.06 µg/mL
- increase of IgA concentration in feces (IgA; subjects A to C, 3g for one month): twice or more

Compound: OC[C@H]1O[C@@](CO)(OC[C@@]2(OC[C@@]3(OC[C@@]4(O[C@H]5O[C@H](CO)[C@@H](O)[C@H](O)[C@H]5O)O[C@H](CO)[C@@H](O)[C@@H]4O)O[C@H](CO)[C@@H](O)[C@@H]3O)O[C@H](CO)[C@@H](O)[C@@H]2O)[C@@H](O)[C@@H]1O [F-nystose]
- proportion of Bifidobacterium proliferated to total bacterial count (Bifidobacterium [3]): 7.94%

Compound: OC[C@H]1O[C@@](CO)(OC[C@@]2(OC[C@@]3(O[C@H]4O[C@H](CO)[C@@H](O)[C@H](O)[C@H]4O)O[C@H](CO)[C@@H](O)[C@@H]3O)O[C@H](CO)[C@@H](O)[C@@H]2O)[C@@H](O)[C@@H]1O [nystose]
- proportion of Bifidobacterium proliferated to total bacterial count (Bifidobacterium [3]): 7.94%
